These results are taken from publication PMC3377626, “Role of mprF1 and mprF2 in the Pathogenicity of Enterococcus faecalis” (PLoS ONE, 2012).

≈ marks a conversion by molar mass, not a printed value. No end group written: not given here.

In test [1] the test system is E. faecalis 12030. Briefly: MIC by serial dilution (modified NCCLS method). It counts as cell-based, Enterococcus faecalis. To be noted: wild type strain; serial dilution in TSB broth, 96-well plates, approx. 1×10^6 CFU/ml, overnight at 37°C; lowest concentration at which visible growth was inhibited. The method, then: (§1) The minimal inhibitory concentration (MIC) of polymyxin B, nisin, HBD-3, and colistin was determined in serial dilution with a modified NCCLS method. Experiments were performed in TSB broth in 96-well microtiter tissue culture plates (Greiner). Wells were inoculated with 50-µl volumes of a suspension containing approximately 1×10^6 CFU/ml of the test organism, and concentrations were confirmed by enumeration of CFUs after serial dilution. Microtiter plates were incubated overnight at 37°C, and the MICs were defined as the lowest concentration at which visible growth was inhibited. The MIC against daptomycin was determined by E-test according to standard laboratory procedures.

A further test deals with E. faecalis 12030 ΔmprF2. The test can be described thus: MIC by serial dilution (modified NCCLS method). The note with it: for Minimal inhibotory concentration: mprF2 (EF_1027) deletion mutant, serial dilution in TSB broth, 96-well plates, approx. 1×10^6 CFU/ml, overnight at 37°C, lowest concentration at which visible growth was inhibited; for fold decreased MIC of 12030ΔmprF2 compared to the wild-type strain: ratio of MIC of wild type E. faecalis 12030 to MIC of 12030ΔmprF2, from Table 1. It is filed as cell-based, Enterococcus faecalis. As to the method: as §1

In another test the test system is S. aureus. The note with it: S. aureus MprF mutant versus wild type; cited from earlier work. The text has this:
In contrast to S. aureus, however, there was no effect on ...

The subject of test [2] is E. faecalis 12030 ΔmprF2 CM. The test can be described thus: MIC by serial dilution (modified NCCLS method). It is filed as cell-based, Enterococcus faecalis. The note with it: mprF2 mutant complemented by knock-in of mprF2; serial dilution in TSB broth, 96-well plates, approx. 1×10^6 CFU/ml, overnight at 37°C; lowest concentration at which visible growth was inhibited. As to the method: as §1

The test system of another test is E. faecalis 12030 ΔmprF1. Briefly: MIC by serial dilution (modified NCCLS method). To be noted: mprF1 (EF_0031) deletion mutant; serial dilution in TSB broth, 96-well plates, approx. 1×10^6 CFU/ml, overnight at 37°C; lowest concentration at which visible growth was inhibited. It counts as cell-based, Enterococcus faecalis. The method, then:
as §1

In a further test the test system is 12030ΔmprF2. The test can be described thus: MIC by E-test. To be noted: mprF2 deletion mutant. It is filed as cell-based, Enterococcus faecalis. As to the method: as §1
Test [3] has as its system 12030ΔmprF2 CM (knock-in). Briefly: MIC by E-test. It counts as cell-based, Enterococcus faecalis. The note with it: mprF2 mutant complemented by knock-in. The method, then:
as §1

Another test deals with 12030ΔmprF1. The test can be described thus: MIC by E-test. It is filed as cell-based, Enterococcus faecalis. To be noted: mprF1 deletion mutant. The method, then:
as §1

Test [4] deals with E. faecalis 12030. Briefly: MIC by E-test. It is filed as cell-based, Enterococcus faecalis. The note with it: wild-type strain. The method, then: as §1

Regarding polymyxin B, the Minimal inhibotory concentration with E. faecalis 12030 [1] amounted to 1024 µg/mL. In the test with E. faecalis 12030 ΔmprF2, the Minimal inhibotory concentration amounted to 256 µg/mL and the “fold decreased MIC of 12030ΔmprF2 compared to the wild-type strain” value (shortened to “fold decreased MIC of 12030ΔmprF2”) turned out to be 4 fold.
For colistin, in that order: 4096 µg/mL, 2048 µg/mL and 2 fold.
On to “nisin (ITSISLCTPGCKTGALMGCNMKTATCHCSIHVSK; cysteine pairing not given here; also: lantibiotic nisin-A, lanthionine/dehydro residues not placed; UniProt P13068 24-57, looked up) [cationic antimicrobial peptide (CAMP)]”, for which the “fold drop of the MIC on mutation of MprF in S. aureus” value in the test with S. aureus is listed as 28 fold. The Minimal inhibotory concentration in test [2] was 4 µg/mL; with E. faecalis 12030 [1], 4 µg/mL; in the test with E. faecalis 12030 ΔmprF2 it was 1 µg/mL; with E. faecalis 12030 ΔmprF1, 4 µg/mL. Besides, the “fold decreased MIC of 12030ΔmprF2” value in the test on E. faecalis 12030 ΔmprF2 was determined as 4 fold.
For the compound `CCCCCCCCCC(=O)N[C@@H](Cc1c[nH]c2ccccc12)C(=O)N[C@H](CC(N)=O)C(=O)N[C@@H](CC(=O)O)C(=O)N[C@@H]1C(=O)NCC(=O)N[C@@H](CCCN)C(=O)N[C@@H](CC(=O)O)C(=O)N[C@H](C)C(=O)N[C@@H](CC(=O)O)C(=O)NCC(=O)N[C@H](CO)C(=O)N[C@@H]([C@H](C)CC(=O)O)C(=O)N[C@@H](CC(=O)c2ccccc2N)C(=O)O[C@@H]1C` [daptomycin], the MIC (as a rule, the lowest concentration that inhibits growth of the organism) was found to be 0.25 µg/mL (≈ 0.154 µM) against 12030ΔmprF2, 0.25 µg/mL (≈ 0.154 µM) in test [3], 0.25 µg/mL (≈ 0.154 µM) in the test on 12030ΔmprF1 and 0.19 µg/mL (≈ 0.117 µM) with E. faecalis 12030 [4].
Take “HBD-3: cationic antimicrobial peptide (CAMP) (GIINTLQKYYCRVRGGRCAVLSCLPKEEQIGKCSTRGRKCCRRKK; ends and bridges not checked; cysteine pairing not given here; UniProt P81534 23-67, looked up)”: in the test with E. faecalis 12030 [1], the Minimal inhibotory concentration was >512 µg/mL. Besides, in the test with E. faecalis 12030 ΔmprF2, the Minimal inhibotory concentration amounted to 128 µg/mL and the “fold decreased MIC of 12030ΔmprF2” value is on record as > 4 fold.
